From patent US20250288599A1, “PHARMACEUTICAL COMPOSITIONS AND METHODS FOR TREATING OSTEOARTHRITIS” (INSIGNIA PHARMACEUTICALS, LLC, priority 2024, published 2025)

What was measured:
[1] = test system: RUNX2 expression in human osteoarthritic chondrocytes; experiment: RUNX2 relative expression in low passage osteoarthritic chondrocytes, 7, 14 or 28 days; type: cell-based; conditions: 7, 14, 28 days
Description: Media was exchanged bi-weekly. Chondrocytes cultured for 7 days, 14 days, or 28 days were analyzed to assess SOX9 and RUNX2 expression. SOX9 is a transcription factor vital to the development and maintenance of cartilage and is required for chondrogenesis. SOX9 promotes chondrocyte survival and transcriptionally activates cartilage-specific genes. SOX9 is repressed in hypertrophic chondrocytes (i.e. terminally differentiated osteoblast-like cells).
The RUNX2 expression is provided at 7, 14, and 28 days of culturing.

[2] = test system: Col2a1 expression in low passage osteoarthritic chondrocytes; experiment: Col2a1 relative expression in low passage osteoarthritic chondrocytes; type: cell-based, human; conditions: day 28
[3] = test system: Col2a1 expression in human osteoarthritic chondrocytes; experiment: Col2a1 relative expression in human osteoarthritic chondrocytes (passage 5) cultured 27 days; type: cell-based; conditions: 50 micromolar Dec, 0.1 μM Dxp, 100 mM Lac
Description: (§1) To evaluate the biological ramifications of the SOX9 to RUNX2 regulation mentioned above, delta-delta relative gene expression was assessed against medium controls, with normalization to GAPDH for both Col2a1 and Col1a1 in the samples tested with reference to Example 15. […] Moreover, treatment with 100 mM Lac increased collagen expression (49.88±4.31 and 1.63±0.20 for Col2a1 and Col1a1, respectively; FIGS. 51 and 52).

[4] = test system: Col1a1 expression in human osteoarthritic chondrocytes; experiment: Col1a1 relative expression in human osteoarthritic chondrocytes (passage 5) cultured 27 days; type: cell-based; conditions: 50 micromolar Dec, 0.1 μM Dxp, 100 mM Lac
Description: as §1

[5] = test system: Col2a1 expression in dedifferentiated osteoarthritic chondrocytes; experiment: Col2a1 relative expression in high passage osteoarthritic chondrocyte monolayer model with TGF-β; type: cell-based, human; conditions: 14 days in culture with TGF-β; 28 mM Lac, 100 mm LA
Description: These compounds were tested in a high passage osteoarthritic chondrocyte monolayer model, alone or in combination with other agents, for both transcriptional regulation of standard markers and IL-1β-induced PGE2 production.

SMILES: CC(O)C(=O)O (centres unmarked) [Lac, lactate]
- RUNX2 expression [1]: temporal decrease in RUNX2
- relative expression of Col2a1 [2]: elevated Col2a1 relative expression
- Col2a1 delta-delta relative gene expression [3]: 49.88±4.31 fold
- Col1a1 delta-delta relative gene expression [4]: 1.63±0.20 fold
- increase in Col2a1 compared to controls [5]: 30 fold
